Data: US20130303509A1, “NAMPT INHIBITORS” (AbbVie Inc., priority 2012, published 2013)

tested on: PC3 cells; assay: NAMPT Cell Proliferation Assay; format: cell-based; settings: Homo sapiens, PC-3, 120 h, 5 days incubation, cell viability by Cell Titer Glo
In short: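 Five-day CellTiter-Glo viability readout in PC3 cells grown in RPMI/10% heat-inactivated FBS. Compounds added after overnight attachment as a 10-fold dilution series, […]. Percent inhibition fitted to sigmoidal dose-response to derive IC50.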

IC50	Structure (SMILES)
84.6 nM	O=C(Nc1ccc(OC2CCN(C(=O)c3cc(F)cc(F)c3)CC2)cc1)C1CN(c2ccnnc2)C1 [Example 299, N-(4-{[1-(3,5-difluorobenzoyl)piperidin-4-yl]oxy}phenyl)-1-(pyridazin-4-yl)azetidine-3-carboxamide]
25.9 nM	CCC(C)(C)C(=O)N1CCC(Oc2ccc(NC(=O)C3CN(c4ccnnc4)C3)cc2)CC1 [Example 300, N-(4-{[1-(2,2-dimethylbutanoyl)piperidin-4-yl]oxy}phenyl)-1-(pyridazin-4-yl)azetidine-3-carboxamide]
90.5 nM	O=C(Nc1ccc(OC2CCN(C(=O)C3CC3)CC2)cc1)C1CN(c2ccnnc2)C1 [Example 301, N-(4-{[1-(cyclopropylcarbonyl)piperidin-4-yl]oxy}phenyl)-1-(pyridazin-4-yl)azetidine-3-carboxamide]
82.4 nM	O=C(Nc1ccc(OC2CCN(C(=O)C3CCCO3)CC2)cc1)C1CN(c2ccnnc2)C1 (stereo not shown) [Example 302, 1-(pyridazin-4-yl)-N-(4-{[1-(tetrahydrofuran-2-ylcarbonyl)piperidin-4-yl]oxy}phenyl)azetidine-3-carboxamide]
58.6 nM	O=C(Nc1ccc(OC2CCN(C(=O)c3cccs3)CC2)cc1)C1CN(c2ccnnc2)C1 [Example 303, 1-(pyridazin-4-yl)-N-(4-{[1-(thiophen-2-ylcarbonyl)piperidin-4-yl]oxy}phenyl)azetidine-3-carboxamide]
33.2 nM	Cc1ccc(C(=O)N2CCC(Oc3ccc(NC(=O)C4CN(c5ccnnc5)C4)cc3)CC2)s1 [Example 304, N-[4-({1-[(5-methylthiophen-2-yl)carbonyl]piperidin-4-yl}oxy)phenyl]-1-(pyridazin-4-yl)azetidine-3-carboxamide]
102 nM	O=C(Nc1ccc(OC2CCN(C(=O)Cc3cccc(C(F)(F)F)c3)CC2)cc1)C1CN(c2ccnnc2)C1 [Example 305, 1-(pyridazin-4-yl)-N-{4-[(1-{[3-(trifluoromethyl)phenyl]acetyl}piperidin-4-yl)oxy]phenyl}azetidine-3-carboxamide]
34.7 nM	O=C(Nc1ccc(OC2CCN(C(=O)C3CCOCC3)CC2)cc1)C1CN(c2ccnnc2)C1 [Example 306, 1-(pyridazin-4-yl)-N-(4-{[1-(tetrahydro-2H-pyran-4-ylcarbonyl)piperidin-4-yl]oxy}phenyl)azetidine-3-carboxamide]
20.8 nM	CC[C@H](C)C(=O)N1CCC(Oc2ccc(NC(=O)C3CN(c4ccnnc4)C3)cc2)CC1 [Example 307, N-[4-({1-[(2S)-2-methylbutanoyl]piperidin-4-yl}oxy)phenyl]-1-(pyridazin-4-yl)azetidine-3-carboxamide]
61.4 nM	O=C(Nc1ccc(OC2CCN(C(=O)Cc3ccccc3F)CC2)cc1)C1CN(c2ccnnc2)C1 [Example 308, N-[4-({1-[(2-fluorophenyl)acetyl]piperidin-4-yl}oxy)phenyl]-1-(pyridazin-4-yl)azetidine-3-carboxamide]
8200 nM	CC(C)Cn1cc(-c2ccc(C(=O)NC3CN(c4cccnn4)C3)o2)cn1 [Example 309, 5-[1-(2-methylpropyl)-1H-pyrazol-4-yl]-N-[1-(pyridazin-3-yl)azetidin-3-yl]furan-2-carboxamide]
16.1 nM	CC(C)C(=O)N1CCC(c2ccc(NC(=O)[C@H]3CCN(c4cccnn4)C3)cc2)CC1 [Example 310, (3S)—N-{4-[1-(2-methylpropanoyl)piperidin-4-yl]phenyl}-1-(pyridazin-3-yl)pyrrolidine-3-carboxamide]
2.9 nM	O=C(Nc1ccc(C2CCN(C(=O)c3ccccc3)CC2)cc1)[C@H]1CCN(c2cccnn2)C1 [Example 311, (3S)—N-[4-(1-benzoylpiperidin-4-yl)phenyl]-1-(pyridazin-3-yl)pyrrolidine-3-carboxamide]
21.7 nM	O=C(Nc1ccc(C2CCN(C(=O)CC3CCOCC3)CC2)cc1)[C@H]1CCN(c2cccnn2)C1 [Example 312, (3S)-1-(pyridazin-3-yl)-N-{4-[1-(tetrahydro-2H-pyran-4-ylacetyl)piperidin-4-yl]phenyl}pyrrolidine-3-carboxamide]
6.03 nM	CC(C)(C)C(=O)N1CCC(c2ccc(NC(=O)[C@H]3CCN(c4cccnn4)C3)cc2)CC1 [Example 313, (3S)—N-{4-[1-(2,2-dimethylpropanoyl)piperidin-4-yl]phenyl}-1-(pyridazin-3-yl)pyrrolidine-3-carboxamide]
621 nM	CC(C)(C)OC(=O)N1CCC(c2ccc(C(=O)NC3CN(c4cccnn4)C3)cc2)CC1 [Example 314, tert-butyl 4-(4-{[1-(pyridazin-3-yl)azetidin-3-yl]carbamoyl}phenyl)piperidine-1-carboxylate]
86.8 nM	CC(C)Cn1cc(-c2ccc(C(=O)NC3CN(c4cccnn4)C3)s2)cn1 [Example 315, 5-[1-(2-methylpropyl)-1H-pyrazol-4-yl]-N-[1-(pyridazin-3-yl)azetidin-3-yl]thiophene-2-carboxamide]
3.12 nM	CC(=O)N1CCC(c2ccc(NC(=O)C3CN(c4cccnn4)C3)cc2)CC1 [Example 316, N-[4-(1-acetylpiperidin-4-yl)phenyl]-1-(pyridazin-3-yl)azetidine-3-carboxamide]
1.83 nM	CCCC(=O)N1CCC(c2ccc(NC(=O)C3CN(c4cccnn4)C3)cc2)CC1 [Example 317, N-[4-(1-butanoylpiperidin-4-yl)phenyl]-1-(pyridazin-3-yl)azetidine-3-carboxamide]

IC50	Structure (SMILES)
2.72 nM	CCCCC(=O)N1CCC(c2ccc(NC(=O)C3CN(c4cccnn4)C3)cc2)CC1 [Example 318, N-[4-(1-pentanoylpiperidin-4-yl)phenyl]-1-(pyridazin-3-yl)azetidine-3-carboxamide]
1.24 nM	CCC(C)C(=O)N1CCC(c2ccc(NC(=O)C3CN(c4cccnn4)C3)cc2)CC1 (stereo not shown) [Example 319, N-{4-[1-(2-methylbutanoyl)piperidin-4-yl]phenyl}-1-(pyridazin-3-yl)azetidine-3-carboxamide]
2.37 nM	CC(C)CC(=O)N1CCC(c2ccc(NC(=O)C3CN(c4cccnn4)C3)cc2)CC1 [Example 320, N-{4-[1-(3-methylbutanoyl)piperidin-4-yl]phenyl}-1-(pyridazin-3-yl)azetidine-3-carboxamide]
3.21 nM	CCCCCC(=O)N1CCC(c2ccc(NC(=O)C3CN(c4cccnn4)C3)cc2)CC1 [Example 321, N-[4-(1-hexanoylpiperidin-4-yl)phenyl]-1-(pyridazin-3-yl)azetidine-3-carboxamide]
2.14 nM	CCCC(C)C(=O)N1CCC(c2ccc(NC(=O)C3CN(c4cccnn4)C3)cc2)CC1 (stereo not shown) [Example 322, N-{4-[1-(2-methylpentanoyl)piperidin-4-yl]phenyl}-1-(pyridazin-3-yl)azetidine-3-carboxamide]
2.81 nM	CCC(C)CC(=O)N1CCC(c2ccc(NC(=O)C3CN(c4cccnn4)C3)cc2)CC1 (stereo not shown) [Example 323, N-{4-[1-(3-methylpentanoyl)piperidin-4-yl]phenyl}-1-(pyridazin-3-yl)azetidine-3-carboxamide]
7.08 nM	CC(C)CCC(=O)N1CCC(c2ccc(NC(=O)C3CN(c4cccnn4)C3)cc2)CC1 [Example 324, N-{4-[1-(4-methylpentanoyl)piperidin-4-yl]phenyl}-1-(pyridazin-3-yl)azetidine-3-carboxamide]
1.28 nM	CCC(C)(C)C(=O)N1CCC(c2ccc(NC(=O)C3CN(c4cccnn4)C3)cc2)CC1 [Example 325, N-{4-[1-(2,2-dimethylbutanoyl)piperidin-4-yl]phenyl}-1-(pyridazin-3-yl)azetidine-3-carboxamide]
5.77 nM	CC(C)C(C)C(=O)N1CCC(c2ccc(NC(=O)C3CN(c4cccnn4)C3)cc2)CC1 (stereo not shown) [Example 326, N-{4-[1-(2,3-dimethylbutanoyl)piperidin-4-yl]phenyl}-1-(pyridazin-3-yl)azetidine-3-carboxamide]
1.23 nM	CC(C)(C)CC(=O)N1CCC(c2ccc(NC(=O)C3CN(c4cccnn4)C3)cc2)CC1 [Example 327, N-{4-[1-(3,3-dimethylbutanoyl)piperidin-4-yl]phenyl}-1-(pyridazin-3-yl)azetidine-3-carboxamide]
1.59 nM	CCC(CC)C(=O)N1CCC(c2ccc(NC(=O)C3CN(c4cccnn4)C3)cc2)CC1 [Example 328, N-{4-[1-(2-ethylbutanoyl)piperidin-4-yl]phenyl}-1-(pyridazin-3-yl)azetidine-3-carboxamide]
2.83 nM	CCCCCCC(=O)N1CCC(c2ccc(NC(=O)C3CN(c4cccnn4)C3)cc2)CC1 [Example 329, N-[4-(1-heptanoylpiperidin-4-yl)phenyl]-1-(pyridazin-3-yl)azetidine-3-carboxamide]
1.38 nM	C=CCC(=O)N1CCC(c2ccc(NC(=O)C3CN(c4cccnn4)C3)cc2)CC1 [Example 330, N-{4-[1-(but-3-enoyl)piperidin-4-yl]phenyl}-1-(pyridazin-3-yl)azetidine-3-carboxamide]
2.09 nM	C=CCCC(=O)N1CCC(c2ccc(NC(=O)C3CN(c4cccnn4)C3)cc2)CC1 [Example 331, N-{4-[1-(pent-4-enoyl)piperidin-4-yl]phenyl}-1-(pyridazin-3-yl)azetidine-3-carboxamide]
0.99 nM	O=C(Nc1ccc(C2CCN(C(=O)CC(F)(F)F)CC2)cc1)C1CN(c2cccnn2)C1 [Example 332, 1-(pyridazin-3-yl)-N-{4-[1-(3,3,3-trifluoropropanoyl)piperidin-4-yl]phenyl}azetidine-3-carboxamide]
5.68 nM	COCC(=O)N1CCC(c2ccc(NC(=O)C3CN(c4cccnn4)C3)cc2)CC1 [Example 333, N-{4-[1-(methoxyacetyl)piperidin-4-yl]phenyl}-1-(pyridazin-3-yl)azetidine-3-carboxamide]
0.97 nM	CSCC(=O)N1CCC(c2ccc(NC(=O)C3CN(c4cccnn4)C3)cc2)CC1 [Example 334, N-(4-{1-[(methylsulfanyl)acetyl]piperidin-4-yl}phenyl)-1-(pyridazin-3-yl)azetidine-3-carboxamide]
6.07 nM	COCCOCC(=O)N1CCC(c2ccc(NC(=O)C3CN(c4cccnn4)C3)cc2)CC1 [Example 335, N-(4-{1-[(2-methoxyethoxy)acetyl]piperidin-4-yl}phenyl)-1-(pyridazin-3-yl)azetidine-3-carboxamide]
